Experimental findings from ChEMBL document CHEMBL6134831 (Eur J Med Chem, 2025) are described below.

The test system of assay [1] is Mus musculus. The experiment in a line: Antihyperlipidemic activity against Triton WR-1339 induced hyperlipidemic male Swiss albino mouse model assessed as total cholesterol level in mouse blood at 13 mg/kg, po pre-treated with compound for 6 days followed by triton WR-1339 induction and measured after 24 hrs (reference value: 426.3 +/- 2 mg/dL). To be noted: time 7 day. Format: functional.

In assay [2] the test system is HepaRG. As to the kind of experiment: Cytotoxicity against human HepaRG cells assessed as mortality rate at 25 uM incubated for 30 mins by LDH assay relative to control. Format: functional. To be noted: 0.5 h.
For assay [3], the system named is Mus musculus. The experiment in a line: Antihyperlipidemic activity in Triton WR-1339 induced hyperlipidemic male Swiss albino mouse model assessed as histopathological change in kidney at 13 mg/kg, po pre-treated with compound for 6 days followed by triton WR-1339 induction and measured after 24 hrs by H&E staining based analysis. Format: functional, organism-based. Conditions: time 7.0 day.

Assay [4] relates to Mus musculus. As to the kind of experiment: Antihyperlipidemic activity in Triton WR-1339 induced hyperlipidemic male Swiss albino mouse model assessed as amelioration of islet cell disruption at 13 mg/kg, po pre-treated with compound for 6 days followed by triton WR-1339 induction and measured after 24 hrs by H&E staining based microscopic analysis. Format: functional, organism-based. To be noted: time 7.0 day.

Assay [5] deals with Mus musculus. As to the kind of experiment: Antihyperlipidemic activity against Triton WR-1339 induced hyperlipidemic male Swiss albino mouse model assessed as TG level in mouse blood at 13 mg/kg, po pre-treated with compound for 6 days followed by triton WR-1339 induction and measured after 24 hrs (reference value: 485.3 +/- 4.8 mg/dL). Type of assay: functional. To be noted: time 7 day.

In assay [6] the test system is Mus musculus. As to the kind of experiment: Antihyperlipidemic activity against Triton WR-1339 induced hyperlipidemic male Swiss albino mouse model assessed as HDL level in mouse blood at 13 mg/kg, po pre-treated with compound for 6 days followed by triton WR-1339 induction and measured after 24 hrs (reference value: 97.4 +/- 1.2 mg/dL). Format: functional. To be noted: time 7 day.

Assay [7] relates to Mus musculus. The experiment in a line: Antihyperlipidemic activity against Triton WR-1339 induced hyperlipidemic male Swiss albino mouse model assessed as LDL level in mouse blood at 13 mg/kg, po pre-treated with compound for 6 days followed by triton WR-1339 induction and measured after 24 hrs (reference value: 231.9 +/- 0.7 mg/dL). Type of assay: functional. To be noted: time 7 day.

Assay [8] concerns HepaRG. The experiment in a line: Cytotoxicity against human HepaRG cells assessed as mortality rate at 250 uM incubated for 30 mins by LDH assay relative to control. Conditions: 0.5 h. Format: functional.
Assay [9] deals with Mus musculus. As to the kind of experiment: Antihyperglycemic activity against Triton WR-1339 induced hyperlipidemic male Swiss albino mouse model assessed as blood glucose level at 13 mg/kg, po pre-treated with compound for 6 days followed by triton WR-1339 induction and measured after 24 hrs by glucose meter analysis (reference value: 121.6 +/- 7.8). Type of assay: functional. Conditions: time 7 day.

Assay [10] has as its system Mus musculus. The experiment in a line: Antihyperlipidemic activity in Triton WR-1339 induced hyperlipidemic male Swiss albino mouse model assessed as change in carotid artery endothelial cells at 13 mg/kg, po pre-treated with compound for 6 days followed by triton WR-1339 induction and measured after 24 hrs by H&E staining based analysis. Conditions: time 7.0 day. Format: functional, organism-based.

Assay [11] concerns Mus musculus. As to the kind of experiment: Antihyperlipidemic activity against Triton WR-1339 induced hyperlipidemic male Swiss albino mouse model assessed as VLDL level in mouse blood at 13 mg/kg, po pre-treated with compound for 6 days followed by triton WR-1339 induction and measured after 24 hrs (reference value: 97.1 +/- 1 mg/dL). To be noted: time 7 day. Format: functional.

The source made the active and inactive calls. The rule behind the calls is not given here.

Regarding `CC(C)OC(=O)C(C)(C)Oc1ccc(C(=O)c2ccc(Cl)cc2)cc1` [FENOFIBRATE], the Activity in the assay on Mus musculus [1] was found to be 135.7 mg/dL; with HepaRG [2] it was 12%; in the assay with Mus musculus [5], 103 mg/dL; with Mus musculus [6], 58.7 mg/dL; in the assay on Mus musculus [7], 54.4 mg/dL; with HepaRG [8], 18%. The Activity in the assay on Mus musculus [9] was determined as 75 mg/dL; in the assay on Mus musculus [11] it was 20.6 mg/dL. Further, the result with Mus musculus [3], in the assay with Mus musculus [4] and in the assay on Mus musculus [10] was Active.
